Columns and labels:
[1] = biological target: T1, AChE (EC 3.1.1.7) from human (Homo sapiens, UniProt P22303); experiment: human AChE inhibition assay, Ellman's method; format: biochemical; conditions: for IC50: human AChE, mean ± SEM, read-out: huAChE IC50
T1 construct: purchased Sigma-Aldrich
Procedure: ; The inhibitory activities of the target compounds towards AChE (from Electrophorus electricus (electric eeAChE, Sigma-Aldrich) and horse serum BChE (eqBChE, Sigma-Aldrich) or human AChE – huAChE; human BuChE – huBuChE (huAChE, huBuChE, Sigma-Aldrich) were measured by Ellman’s method. In 96-well plates, a mixture of phosphate buffer (0.1 M, pH 8.0, […]), 5,5′-dithiobis-2-nitrobenzoic acid (DTNB, 60 µL), acetylcholinestrase or butyrylcholinesterase (20 µL, 5 IU/mL) and different concentration of the compound solution (30 µL) was pre-incubated for 5 min followed by the addition of the substrate (acetylthiocholine iodide or butyrylthiocholine iodide, 20 µL). Changes in absorbance were measured at 412 nm by using microplate reader (Thermo, Varioskan Flash 3001, USA). The measurement of each concentration for each compound was detected in triplicate. GraphPad Prism 6.0 (GraphPad Software, Inc., La Jolla, CA) was used for data processing. The inhibition curve was fitted by plotting percentage enzyme activity (100% for the reference) versus the logarithm of the concentration of tested compound. The half-maximal inhibitory concentration (IC50) values were calculated according to the inhibition curve and the data were shown in the layout of mean ± SEM by GraphPad Prism 6.0.

PC-12 cells = experiment: In vitro cell toxicity on PC-12 cell line (MTT); format: cell-based; conditions: 10, 20, 30 and 50 µM, 24 h
Text: We focussed on the cell toxicity of the synthesised compounds. Compounds 15b and 15j were selected as representative compounds for the evaluation of their potential cytotoxic effects.
Figure 4. (A) In vitro cell toxicity of 15b and 15j on PC-12 cell line. (B) In vitro hepatotoxicity of 15b and 15j on HepG2 cell line. Data were expressed as mean ± SD (n = 3).
(§1) PC12 cell and HepG2 cell (human hepatocellular liver carcinoma cell line purchased from Institute of Materia of Chinese Academy of Medical Science), were grown in DMEM supplemented with 10% FBS at 37 °C in a humidified atmosphere containing 5% CO2. For the experiments, cells (6 × 10^3 cells/well) were seeded in 96-well plate in complete medium. […]

HepG2 cells = experiment: In vitro hepatotoxicity on HepG2 cell line (MTT); format: cell-based; conditions: 5, 15, 50 µM, 24 h, compared to donepezil
Procedure: as §1

Aβ1–42 = biological target: T2, Aβ1–42 (Homo sapiens, UniProt P05067); experiment: Inhibition of self-induced Aβ1–42 aggregation (thioflavin T); format: biochemical; conditions: under 50 µM, ThT fluorometric assay
T2 construct: self-induced Aβ1–42 aggregation; purchased Anaspec Inc. AS-64129–05
T2 sequence (P05067 672-713): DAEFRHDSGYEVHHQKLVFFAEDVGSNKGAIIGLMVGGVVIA
Procedure: Compounds 15b and 15j were evaluated for their inhibitory capacity on self-induced Aβ1–42 aggregation based on a thioflavin T-based fluorometric assay. […]
(§2) Corresponding Authors: clarissa0710@163.com (Y. Chen); sunhaopeng@163.com (H. P.
(§3) 1.1. Inhibition of self-induced Aβ1–42 aggregation
(§4) Inhibitory effect of the compounds on self -induced Aβ1–42 aggregation was determined through a thioflavin T (ThT)-(T3516, Sigma-Aldrich) binding assay.
(§5) Firstly, aliquots of 2 μL of Aβ 1–42 (AS-64129–05 Anaspec Inc.) containing 2 mg/mL HFIP (1,1,1,3,3,3-hexafluoro-2-propanol, 52517 (Sigma-Aldrich) were stocked in DMSO).
(§6) Then, they were diluted with 0.215M sodium phosphate buffer (pH 8.0) to the final concentration of 500 μM. Test compounds were dissolved in DMSO and then prepared at a concentration of 50 μM by the buffer. Resveratrol was used as a positive control. […]
(§7) Fluorescence intensity was read (excitation wavelength 450 nm, emission wavelength 485 nm) on a microplate reader (Thermo, Varioskan Flas h 3001, USA).
(§8) The calculation of the inhibitory rate of Aβ 1–42 self-induced aggregation was performed using the following equation: (1 -IFi/IFc) × 100 %. IFi and IFc were the fluorescence intensities measured in the presence and absence of inhibitors, respe ctively, after subtracting the background fluorescence of the 5mM ThT solution. Each compound was measured in triplicate. […]

[2] = DPPH radical scavenging activity; conditions: at 1 mM
Procedure: Compounds 15b and 15j were selected to be evaluated for their 1,1-diphenyl-2-picrylhydrazyl radical scavenging activity (DPPH) compared with trolox as reference compound[12].
as §2, §3, §4, §5, §6, §7, §8

liver = experiment: Liver histopathological study (HE staining); conditions: 36 h after administration, compared to control group
Text: Figure 7. […] HE staining, original magnification ×200.

eqBChE = biological target: T3, eqBChE (Equus caballus, UniProt P81908); experiment: Kinetic study of BChE inhibition (Lineweaver–Burk); format: biochemical; conditions: Lineweaver–Burk plot, 0, 0.5, 1, 2, 5 µM
T3 construct: horse serum BChE (eqBChE, Sigma-Aldrich); purchased Sigma-Aldrich; host or cells: horse serum
T3 sequence (P81908 whole entry): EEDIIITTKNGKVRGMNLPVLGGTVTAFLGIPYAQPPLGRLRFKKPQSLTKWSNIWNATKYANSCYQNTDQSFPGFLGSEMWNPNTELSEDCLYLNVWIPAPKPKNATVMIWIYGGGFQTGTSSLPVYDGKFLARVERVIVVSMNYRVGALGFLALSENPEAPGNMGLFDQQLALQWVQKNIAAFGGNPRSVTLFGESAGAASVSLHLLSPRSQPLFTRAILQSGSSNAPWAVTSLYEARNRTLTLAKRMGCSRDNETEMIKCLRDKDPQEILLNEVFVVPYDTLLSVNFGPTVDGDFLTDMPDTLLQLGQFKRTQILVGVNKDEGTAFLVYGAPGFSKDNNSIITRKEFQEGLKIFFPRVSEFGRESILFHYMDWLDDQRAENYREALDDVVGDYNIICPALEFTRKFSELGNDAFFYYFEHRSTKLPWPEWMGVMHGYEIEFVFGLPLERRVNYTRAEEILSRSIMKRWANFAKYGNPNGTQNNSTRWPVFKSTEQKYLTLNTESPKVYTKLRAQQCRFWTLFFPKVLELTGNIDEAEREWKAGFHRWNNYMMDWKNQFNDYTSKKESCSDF
Procedure: In each case, the kinetic type of enzyme inhibition was obtained through the modified Ellman’s method and Lineweaver–Burk secondary plots.
Figure 2. […] (B) Lineweaver–Burk plot for the inhibition of eqBChE by compound 15j at different concentrations of substrate.
[…]. The enzymatic reaction was extended to 7 min for eeAChE and eqBuChE before the determination of the absorption. Vmax and Km values of the Michaelis–Menten kinetics were calculated by nonlinear regression from substrate-velocity curves using GraphPad Prism 6.0. Linear regression was used for fitting the Lineweaver–Burk plots.

T1 sequence (P22303 32-614): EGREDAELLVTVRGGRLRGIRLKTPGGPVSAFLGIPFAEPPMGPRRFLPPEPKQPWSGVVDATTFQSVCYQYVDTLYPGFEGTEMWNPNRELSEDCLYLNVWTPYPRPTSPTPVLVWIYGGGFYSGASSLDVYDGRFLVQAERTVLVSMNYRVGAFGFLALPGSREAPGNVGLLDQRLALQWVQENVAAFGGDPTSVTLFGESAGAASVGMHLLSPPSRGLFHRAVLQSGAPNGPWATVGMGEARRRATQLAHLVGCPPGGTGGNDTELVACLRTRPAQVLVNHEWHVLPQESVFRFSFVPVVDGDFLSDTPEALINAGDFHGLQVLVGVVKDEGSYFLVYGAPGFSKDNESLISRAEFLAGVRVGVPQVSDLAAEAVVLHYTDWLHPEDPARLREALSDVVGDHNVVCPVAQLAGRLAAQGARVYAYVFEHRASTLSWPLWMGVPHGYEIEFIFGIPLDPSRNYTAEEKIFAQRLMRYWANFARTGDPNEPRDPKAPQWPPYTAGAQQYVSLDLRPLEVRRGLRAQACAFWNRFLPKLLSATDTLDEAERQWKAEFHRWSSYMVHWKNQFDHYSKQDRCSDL

Row | SMILES | IC50 [1] | cytotoxicity to PC-12 cells (PC-12 cells) | toxicity on HepG2 cell viability (HepG2 cells) | inhibition of self-induced Aβ1–42 aggregation (Aβ1–42) | DPPH inhibitory rate [2] | morphologic changes in liver (liver) | SI (selectivity index = AChE IC50/BChE IC50) ([1]; huAChE IC50 / huBChE IC50) | kinetic type of BChE inhibition (eqBChE)
1 | Cc1ccccc1CN1CCC(CNS(=O)(=O)c2ccc3c(c2)n(C)c(=O)n3C)CC1 [Compound 15b, 1,3-dimethyl-N-((1–(2-methylbenzyl)piperidin-4-yl)methyl)-2-oxo-2,3-dihydro-1H-benzo[d]imidazole-5-sulphonamide] | 1490 ± 430 nM | no cytotoxicity | low toxicity on cell viability | no inhibitory activities | 12.2% | did not result in remarkable morphologic changes in liver | – | –
2 | Cn1c(=O)n(C)c2cc(S(=O)(=O)NCC3CCN(Cc4cccc(Br)c4)CC3)ccc21 [Compound 15j, N-((1–(3-bromobenzyl)piperidin-4-yl)methyl)-1,3-dimethyl-2-oxo-2,3-dihydro-1H-benzo[d]imidazole-5-sulphonamide] | 1250 ± 480 nM | no cytotoxicity | low toxicity on cell viability | no inhibitory activities | 6.3% | did not result in remarkable morphologic changes in liver | 1.89 | competitive

Reference: PMC6968383, “Design, synthesis, in vitro and in vivo evaluation of benzylpiperidine-linked 1,3-dimethylbenzimidazolinones as cholinesterase inhibitors against Alzheimer’s disease” (Journal of Enzyme Inhibition and Medicinal Chemistry, 2019)
